The source made the active and inactive calls. No cut-off for these calls is given here.
What was measured:
[1] = test system: A549; test: Induction of apoptosis in human A549 cells at 5 uM incubated for 72 hrs by Annexin V/PI staining based flow cytometry analysis relative to control; type: functional
[2] = test system: A549; test: Antiproliferative activity against human A549 cells assessed as inhibition of cell proliferation
[3] = test system: HeLa; test: Antiproliferative activity against human HeLa cells assessed as inhibition of cell proliferation
[4] = test system: MCF7; test: Antiproliferative activity against human MCF7 cells assessed as inhibition of cell proliferation
[5] = test system: MDA-MB-231; test: Antiproliferative activity against human MDA-MB-231 cells assessed as inhibition of cell proliferation
[6] = test system: A549; test: Antimetastatic activity in human A549 cells assessed as reduction in cell migration incubated for 24 hrs by wound healing assay; type: functional, cell-based; details: dose 0.5-5 µM
[7] = test system: A549; test: Induction of cell cycle arrest in human A549 cells assessed as accumulation of cells at G2/M phase incubated for 24 hrs by flow cytometry analysis; type: functional, cell-based; details: dose 0.5-5 µM
[8] = test system: A549; test: Induction of cell cycle arrest in human A549 cells assessed as accumulation of cells in G2/M phase by measuring CDK1 level incubated for 24 hrs by Western blotting analysis; type: functional, cell-based; details: dose 0.5-5 µM
[9] = test system: A549; test: Induction of cell cycle arrest in human A549 cells assessed as accumulation of cells in G2/M phase by measuring cyclin B1 level incubated for 24 hrs by Western blotting analysis; type: functional, cell-based; details: dose 0.5-5 µM
[10] = test system: A549; test: Induction of apoptosis in human A549 cells incubated for 72 hrs by Annexin V/PI staining based flow cytometry analysis; type: functional, cell-based; details: dose 0.5-5 µM
[11] = test system: A549; test: Induction of apoptosis in human A549 cells at 0.5 to 5 uM incubated for 72 hrs by Annexin V/PI staining based flow cytometry analysis (reference value: 17.35%); type: functional; details: dose 0.5-5 µM
[12] = test system: A549; test: Induction of apoptosis in human A549 cells assessed as downregulation of Bcl-2 expression incubated for 24 hrs by Western blot analysis; type: functional, cell-based; details: dose 0.5-5 µM
[13] = test system: A549; test: Induction of apoptosis in human A549 cells assessed as upregulation of Bax expression incubated for 24 hrs by Western blot analysis; type: functional, cell-based; details: dose 0.5-5 µM
[14] = test system: A549; test: Induction of apoptosis in human A549 cells assessed as upregulation of PARP expression incubated for 24 hrs by Western blot analysis; type: functional, cell-based; details: dose 0.5-5 µM
[15] = test system: A549; test: Induction of apoptosis in human A549 cells assessed as upregulation of cleaved caspase 3 expression incubated for 24 hrs by Western blot analysis; type: functional, cell-based; details: dose 0.5-5 µM
[16] = test system: A549; test: Induction of apoptosis in human A549 cells assessed as increase in ROS level incubated for 24 hrs by DCFH-DA staining based fluorescence analysis; type: functional, cell-based; details: dose 0.5-5 µM
[17] = test system: A549; test: Induction of apoptosis in human A549 cells assessed as induction of gammaH2AX expression at 0.5 uM incubated for 24 hrs by immunofluorescence analysis; type: functional, cell-based
[18] = test system: A549; test: Induction of apoptosis in human A549 cells assessed as gammaH2AX foci formation incubated for 24 hrs by immunofluorescence analysis; type: functional, cell-based; details: dose 0.5-5 µM

IC50 [2] | IC50 [3] | IC50 [4] | IC50 [5] | SMILES | Activity [1] | further results
 |  |  |  | O=C(CCCCCCC(=O)Nc1ccccc1)NO [VORINOSTAT] | 34.83% | 
4150 nM | 6050 nM | 3040 nM | 1690 nM | CC(C)Cn1c2c(c3ccccc31)CCN(C(=O)CCCCCCC(=O)NO)C2 |  | 
2290 nM | 430 nM | 1840 nM | 196000 nM | O=C(CCCCCCC(=O)N1CCc2c([nH]c3ccccc23)C1)NO |  | 
1090 nM | 6090 nM | 5670 nM | 6740 nM | CC(=O)N1CCc2c(n(CCCCCCC(=O)NO)c3ccccc23)C1 | 43.95% | Activity [6]: Dose-dependent-effect; Activity [7]: Dose-dependent-effect; Activity [8]: Dose-dependent-effect; Activity [9]: Dose-dependent-effect; Activity [10]: Dose-dependent-effect; Activity [11]: 24.17%; Activity [12]: Dose-dependent-effect; Activity [13]: Dose-dependent-effect; Activity [14]: Dose-dependent-effect; Activity [15]: Dose-dependent-effect; Activity [16]: Dose-dependent-effect; Activity [17]: Active; Activity [18]: Dose-dependent-effect
2690 nM | 184000 nM | 1210 nM | 2100 nM | O=C(CCCCCCC(=O)N1CCc2c(n(CC3CC3)c3ccccc23)C1)NO |  | 
